Results published in patent publication US20020034767A1, “Compositions and methods for modulating the activity of G protein-coupled receptor kinases GRK5 and GRK6” (priority 1993, published 2002).
Values joined by “and” are separate entries in the source; they are usually repeats but may differ in a detail not shown here. Identical values can stand only once. Blank lines part the entries; values can stand above or below the compound they belong to.

How the values were obtained:
GRK6 = biological target: T1, GRK6 (Homo sapiens, UniProt P43250); assay: GRK6 phosphorylation of rhodopsin; format: biochemical; conditions: for effect on GRK6 activity: in the presence of Mg2+; for fold less effective as inhibitor of GRK6 compared to GRK5: GRK6 versus GRK5; for IC50: purified GRK6, read-out: IC50 for inhibiting GRK6
T1 construct: The presence of the full length GRK6 cDNA within the genome of the recombinant baculovirus was confirmed; made in house; host or cells: Sf9 insect cells (baculovirus, pBacPAK1)

GRK5 [1] = biological target: T2, GRK5 (Homo sapiens, UniProt P34947); assay: GRK5 phosphorylation of rhodopsin (receptor phosphorylation); format: biochemical; conditions: for reversal of heparin inhibition of GRK5: in presence of heparin
T2 construct: The GRK5 ORF was initially excised by restriction digestion of the full length clone pGRK5 using NaeI and SmaI; made in house; host or cells: Sf9 insect cells (baculovirus, pBacPAK1)
Procedure: Rod outer segments (ROS) were prepared in accordance with methods known to those skilled in the art. Rhodopsin kinase free membranes were prepared by suspending the ROS in 50 mM Tris-HCl, pH 8.0, 5 mM EDTA, 5M urea and sonicating. The urea treated ROS were washed several times by centrifugation and resuspended in 50 mM Tris-HCl, pH 7.5 at a protein concentration of ˜1 mg/ml. Phosphorylation reactions contained 5 μg of total protein from the Sf9 cell supernatants expressing either GRK5 or βARK, urea treated ROS (80 pmol rhodopsin), 20 mM Tris-HCl, pH 7.5, 2 mM EDTA, 6 mM MgCl2 and 0.1 mM [γ-^32P] ATP, in a total reaction volume of 30 μl. When the effect of G protein βγ subunits was assessed, the reactions also contained 0.25 mM dithiothreitol, 0.01% Lubrol and 62 mM NaCl with or without 100 nM βγ subunits. Reactions were incubated at 30° C. for 15 minutes and then stopped by the addition of 50 μl of SDS sample buffer. Samples were electrophoresed on a 10% homogeneous SDS polyacrylamide gel by the method of Laemmli which is well known to those skilled in the art. Gels were dried and autoradiographed at room temperature for 30-120 minutes. The rhodopsin bands in the gel were then cut and counted in a scintillation counter.

βARK = biological target: T3, βARK (Bos taurus, UniProt P21146); conditions: cited from earlier work
T3 sequence (P21146 1-689): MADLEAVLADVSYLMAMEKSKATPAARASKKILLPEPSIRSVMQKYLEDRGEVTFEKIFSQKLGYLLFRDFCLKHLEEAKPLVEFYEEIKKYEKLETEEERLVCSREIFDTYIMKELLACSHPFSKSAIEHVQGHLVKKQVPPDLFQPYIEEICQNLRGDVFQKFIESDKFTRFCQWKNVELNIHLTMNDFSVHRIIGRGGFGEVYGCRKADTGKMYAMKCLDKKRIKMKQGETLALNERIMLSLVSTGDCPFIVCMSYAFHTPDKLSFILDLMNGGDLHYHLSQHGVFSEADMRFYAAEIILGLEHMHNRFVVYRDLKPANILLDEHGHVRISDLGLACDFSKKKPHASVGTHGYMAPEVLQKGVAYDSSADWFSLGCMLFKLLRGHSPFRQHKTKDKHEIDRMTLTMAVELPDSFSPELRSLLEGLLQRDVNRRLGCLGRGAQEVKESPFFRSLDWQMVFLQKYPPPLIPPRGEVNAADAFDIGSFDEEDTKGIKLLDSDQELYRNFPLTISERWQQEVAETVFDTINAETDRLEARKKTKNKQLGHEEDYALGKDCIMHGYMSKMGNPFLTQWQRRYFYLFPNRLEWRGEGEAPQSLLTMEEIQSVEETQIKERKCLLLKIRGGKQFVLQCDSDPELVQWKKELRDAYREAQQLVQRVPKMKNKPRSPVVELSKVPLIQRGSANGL

rhodopsin kinase = biological target: T4, rhodopsin kinase (Bos taurus, UniProt P28327); conditions: cited from earlier work
T4 sequence (P28327 1-561): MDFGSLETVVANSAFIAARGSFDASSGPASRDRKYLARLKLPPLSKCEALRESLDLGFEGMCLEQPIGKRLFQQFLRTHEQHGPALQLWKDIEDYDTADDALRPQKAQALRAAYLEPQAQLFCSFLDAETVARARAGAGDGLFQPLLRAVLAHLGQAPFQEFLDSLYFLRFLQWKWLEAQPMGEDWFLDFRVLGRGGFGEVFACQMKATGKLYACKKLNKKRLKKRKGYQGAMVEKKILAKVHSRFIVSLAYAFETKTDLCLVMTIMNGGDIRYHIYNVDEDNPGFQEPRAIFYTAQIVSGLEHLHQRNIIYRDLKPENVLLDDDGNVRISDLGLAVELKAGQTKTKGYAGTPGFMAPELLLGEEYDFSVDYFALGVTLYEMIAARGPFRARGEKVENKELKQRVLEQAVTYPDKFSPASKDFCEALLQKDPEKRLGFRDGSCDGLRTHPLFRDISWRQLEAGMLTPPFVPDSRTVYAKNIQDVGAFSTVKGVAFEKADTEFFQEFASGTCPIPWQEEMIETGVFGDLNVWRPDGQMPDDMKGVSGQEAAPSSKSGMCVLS

casein kinase II = casein kinase II (Homo sapiens, UniProt P67870+P68400); conditions: cited from earlier work
GRK5 [2] = biological target: T2, GRK5; assay: GRK5 phosphorylation of rhodopsin (receptor phosphorylation); format: biochemical; conditions: purified GRK5; read-out: IC50 for inhibiting GRK5
GRK5 [3] = biological target: T2, GRK5; assay: GRK5 autophosphorylation; format: biochemical

T2 sequence (P34947 whole entry): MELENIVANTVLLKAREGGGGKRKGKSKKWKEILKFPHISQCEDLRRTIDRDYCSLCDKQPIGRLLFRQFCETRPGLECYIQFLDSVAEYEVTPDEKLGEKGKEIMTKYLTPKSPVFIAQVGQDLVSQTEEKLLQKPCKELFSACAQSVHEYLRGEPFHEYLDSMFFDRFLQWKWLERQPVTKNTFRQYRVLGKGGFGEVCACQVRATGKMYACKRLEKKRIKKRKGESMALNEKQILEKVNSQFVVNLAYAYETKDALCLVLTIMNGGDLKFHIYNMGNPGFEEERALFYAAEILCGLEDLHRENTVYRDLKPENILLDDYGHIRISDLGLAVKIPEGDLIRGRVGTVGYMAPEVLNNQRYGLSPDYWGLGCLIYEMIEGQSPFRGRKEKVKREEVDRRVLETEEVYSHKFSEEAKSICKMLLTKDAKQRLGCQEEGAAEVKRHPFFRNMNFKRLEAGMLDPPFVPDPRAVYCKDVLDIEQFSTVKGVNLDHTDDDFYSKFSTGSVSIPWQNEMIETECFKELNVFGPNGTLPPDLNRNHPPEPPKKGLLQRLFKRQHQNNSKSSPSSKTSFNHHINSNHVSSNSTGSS
T1 sequence (P43250 whole entry): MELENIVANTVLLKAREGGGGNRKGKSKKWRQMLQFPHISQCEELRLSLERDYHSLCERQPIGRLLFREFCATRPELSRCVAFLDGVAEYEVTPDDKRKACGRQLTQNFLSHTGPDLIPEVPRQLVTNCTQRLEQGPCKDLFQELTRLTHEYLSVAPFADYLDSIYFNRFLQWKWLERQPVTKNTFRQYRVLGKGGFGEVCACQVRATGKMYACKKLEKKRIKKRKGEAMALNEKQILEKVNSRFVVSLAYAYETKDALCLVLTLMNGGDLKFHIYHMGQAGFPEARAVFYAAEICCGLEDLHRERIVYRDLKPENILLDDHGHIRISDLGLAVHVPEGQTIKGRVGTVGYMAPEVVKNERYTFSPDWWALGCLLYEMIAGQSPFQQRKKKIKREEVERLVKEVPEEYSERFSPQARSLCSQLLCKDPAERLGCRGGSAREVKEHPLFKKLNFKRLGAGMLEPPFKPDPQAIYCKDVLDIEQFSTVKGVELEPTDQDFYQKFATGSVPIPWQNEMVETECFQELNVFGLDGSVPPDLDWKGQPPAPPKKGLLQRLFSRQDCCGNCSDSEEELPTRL
Sequence of casein kinase II (P68400 whole entry): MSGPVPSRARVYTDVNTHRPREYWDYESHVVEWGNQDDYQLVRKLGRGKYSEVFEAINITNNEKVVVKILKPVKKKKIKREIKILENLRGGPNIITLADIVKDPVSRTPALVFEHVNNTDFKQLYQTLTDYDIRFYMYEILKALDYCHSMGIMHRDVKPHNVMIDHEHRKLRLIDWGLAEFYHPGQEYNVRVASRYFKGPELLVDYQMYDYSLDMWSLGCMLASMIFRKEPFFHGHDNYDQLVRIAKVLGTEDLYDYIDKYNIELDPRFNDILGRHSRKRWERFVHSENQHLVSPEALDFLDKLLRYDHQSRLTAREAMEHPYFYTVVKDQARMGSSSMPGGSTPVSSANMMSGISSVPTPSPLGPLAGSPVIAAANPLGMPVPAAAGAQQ
Sequence of casein kinase II (P67870 whole entry): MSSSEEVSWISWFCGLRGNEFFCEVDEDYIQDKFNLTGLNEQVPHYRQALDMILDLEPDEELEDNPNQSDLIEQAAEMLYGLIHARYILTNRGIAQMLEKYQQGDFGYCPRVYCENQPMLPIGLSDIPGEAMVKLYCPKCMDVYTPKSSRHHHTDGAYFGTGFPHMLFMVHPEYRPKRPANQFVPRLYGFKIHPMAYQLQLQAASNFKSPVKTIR

Compound: [Ca+2] [Ca^2+]
- effect on GRK6 activity (GRK6): inhibited

Compound: CC1CNCCN1S(=O)(=O)c1cccc2cnccc12 (stereo not drawn) [H-7]
- IC50 (GRK5 [2]): ~170 µM

Compound: Cl [NaCl]
- IC50 (GRK5 [1]; IC50 for inhibiting GRK5 (receptor phosphorylation), purified GRK5): ~60000 µM and 58000 µM
- IC50 (GRK5 [3]): ~70000 µM

Compound: polylysine
- increase in GRK6 phosphorylation (GRK6; optimal range 1 to 10 μM): ~2.7 fold
- reversal of heparin inhibition of GRK5 (GRK5 [1]): effectively reversed
- activation of GRK5 (GRK5 [1]; optimal concentration of 10 μM): ~2.6 fold
- inhibition of βARK (βARK): weak inhibitors
- effect on rhodopsin kinase (rhodopsin kinase): activators
- effect on casein kinase (casein kinase II): activators

Now from value to compound, other results behind:

- enhancement of GRK6 activity (GRK6; optimal concentration range 0.1 to 0.5 mM): ~1.4 fold
- reversal of heparin inhibition of GRK5 (GRK5 [1]): effectively reversed
- activation of GRK5 (GRK5 [1]; optimal concentrations): ~1.5 fold
Compound: NCCCCNCCCN [spermidine]
- inhibition of βARK (βARK): weak inhibitors
- effect on rhodopsin kinase (rhodopsin kinase): activators
- effect on casein kinase (casein kinase II): activators

- elevation of GRK6 phosphorylation of rhodopsin (GRK6; optimal concentration range 0.01 to 0.1 mM): ~1.5 fold
- reversal of heparin inhibition of GRK5 (GRK5 [1]): effectively reversed
- activation of GRK5 (GRK5 [1]; optimal concentrations): ~1.8 fold
Compound: NCCCNCCCCNCCCN [spermine]
- inhibition of βARK (βARK): weak inhibitors
- effect on rhodopsin kinase (rhodopsin kinase): activators
- effect on casein kinase (casein kinase II): activators

- fold less effective as inhibitor of GRK6 compared to GRK5 (GRK6): ~6 fold
- IC50 (GRK6): 0.487 µM
Compound: polyaspartic acid

- IC50 (GRK6): 0.007 µM
- IC50 (GRK5 [2]): ~0.0006 µM
Compound: dextran sulfate

- effect on GRK6 activity (GRK6): inhibited
Compound: [Zn+2] [Zn^2+]

- IC50 (GRK6): ~0.015 µM
- IC50 (GRK5 [2]): ~0.001 µM
- inhibition of GRK5 autophosphorylation (GRK5 [3]; concentration of 10 μM): does not inhibit
Compound: heparin
- IC50 (rhodopsin kinase): ~200 µM

- fold less effective as inhibitor of GRK6 compared to GRK5 (GRK6): ~16 fold
- IC50 (GRK6): 0.4 µM
Compound: polyglutamic acid
